{
  "source": "patent US11427606B2",
  "about": "“Azithromycin derivatives containing a phosphonium ion as anticancer agents” (Rising Tide Foundation, priority 2017, dated 2022)",
  "data": [
    {"system": "MDA-231 cancer cells", "assay": "Inhibition of proliferation assay: cell confluence (IncuCyte imaging)", "format": "cell-based", "details": "compound at 10 uM; MDA-231 cells; IncuCyte images every 3 h over 4-5 d; relative confluence normalised to time zero", "description": "(§1) Inhibition of Proliferation Assay\n(§2) The confluence value is a surrogate for cell proliferation and growth. The value is expressed as a percent confluence, which represents the fraction of culture dish-surface that is occupied by cells. As the number of cells in the dish increases over time due to proliferation, so will their coverage of that surface increase. Expansion of the cell population on the cell culture-dish surface and confluence have mostly a linear relationship until the cells on the plate surface begin to reach saturation or maximum density.\n(§3) Confluence is determined based on image analysis. Image based software can identify objects in the image field base on changes to pixel density in a grey scale image. The software can then assign a mask to those pixels within the object. Objects can be ‘gated’ out based on size and shape. To determine cell confluence, images of cells are first masked as objects. The surface area of the image that is masked is measured and compared to the total surface area of the culture dish surface to obtain a percent confluence.\n(§4) MDA-231 cancer cells were obtained from ATCC. Cells were cultured in Dulbecco's Modified Eagle Medium (DMEM) supplemented with 10% Fetal Bovine Serum (FBS), 2 mM Glutamax, 1 mM Non Essential Amino Acid (NEAA) solution and 1 mM sodium pyruvate. […] Final DMSO concentrations were […]. Images were acquired with an IncuCyte Live Cell Imaging microscopy (Essen Bioscience) at every 3 h under cell culture conditions with 10× objective over 4-5 d. Cell confluence was calculated from one field of view per well using the IncuCyte in-built algorithm. Relative confluence values were obtained by normalising each value to the time zero value in each sample.", "units": {"% Confluence": "%"}, "values": [
      {"smiles": "CC[C@H]1OC(=O)[C@H](C)[C@@H](O[C@H]2C[C@@](C)(OC)[C@@H](O)[C@H](C)O2)[C@H](C)[C@@H](O[C@@H]2O[C@H](C)C[C@H](N(C)C)[C@H]2O)[C@](C)(O)C[C@@H](C)CN(C(=O)CCCCCCC[P+](c2ccccc2)(c2ccccc2)c2ccccn2)[C@H](C)[C@@H](O)[C@]1(C)O", "note": "[Example 8, {8-[(2R,3S,4R,5R,8R,10R,11R,12S,13S,14R)-11-{[(2S,3R,4S,6R)-4-(dimethylamino)-3-hydroxy-6-methyloxan-2-yl]oxy}-2-ethyl-3,4,10-trihydroxy-13-{[(2R,4R,5S,6S)-5-hydroxy-4-methoxy-4,6-dimethyloxan-2-yl]oxy}-3,5,8,10,12,14-hexamethyl-15-oxo-1-oxa-6-azacyclopentadecan-6-yl]-8-oxooctyl}diphenyl(pyridine-2-yl)phosphonium hexafluorophosphate(V)]", "% Confluence": 83},
      {"smiles": "CC[C@H]1OC(=O)[C@H](C)[C@@H](O[C@H]2C[C@@](C)(OC)[C@@H](O)[C@H](C)O2)[C@H](C)[C@@H](O[C@@H]2O[C@H](C)C[C@H](N(C)C)[C@H]2O)[C@](C)(O)C[C@@H](C)CN(C)[C@H](C)[C@@H](O)[C@]1(C)O", "note": "[Azithromycin]", "% Confluence": 99.1},
      {"smiles": "CC[C@H]1OC(=O)[C@H](C)[C@@H](O[C@H]2C[C@@](C)(OC)[C@@H](O)[C@H](C)O2)[C@H](C)[C@@H](O[C@@H]2O[C@H](C)C[C@H](N(C)C)[C@H]2O)[C@](C)(O)C[C@@H](C)CN(C(=O)CCCCCCCCCCC[PH](CCOC)(c2ccccc2)c2ccccc2)[C@H](C)[C@@H](O)[C@]1(C)O", "note": "[Example 34, {12-[(2R,3S,4R,5R,8R,10R,11R,12S,13S,14R)-11-{[(2S,3R,4S,6R)-4-(dimethylamino)-3-hydroxy-6-methyloxan-2-yl]oxy}-2-ethyl-3,4,10-trihydroxy-13-{[(2R,4R,5S,6S)-5-hydroxy-4-methoxy-4,6-dimethyloxan-2-yl]oxy}-3,5,8,10,12,14-hexamethyl-15-oxo-1-oxa-6-azacyclopentadecan-6-yl]-12-oxododecyl}(2-methoxyethyl)diphenylphosphonium chloride]", "% Confluence": 5.4},
      {"smiles": "CC[C@H]1OC(=O)[C@H](C)[C@@H](O[C@H]2C[C@@](C)(OC)[C@@H](O)[C@H](C)O2)[C@H](C)[C@@H](O[C@@H]2O[C@H](C)C[C@H](N(C)C)[C@H]2O)[C@](C)(O)C[C@@H](C)CN(CCCCCC[P+](c2ccccc2-c2ccccc2N(C)C)(C2CCCCC2)C2CCCCC2)[C@H](C)[C@@H](O)[C@]1(C)O", "note": "[Example 10, dicyclohexyl({6-[(2R,3S,4R,5R,8R,10R,11R,12S,13S,14R)-11-{[(2S,3R,4S,6R)-4-(dimethylamino)-3-hydroxy-6-methyloxan-2-yl]oxy}-2-ethyl-3,4,10-trihydroxy-13-{[(2R,4R,5S,6S)-5-hydroxy-4-methoxy-4,6-dimethyloxan-2-yl]oxy}-3,5,8,10,12,14-hexamethyl-15-oxo-1-oxa-6-azacyclopentadecan-6-yl]hexyl})[2′-(dimethylamino)-[1,1′-biphenyl]-2-yl]phosphonium iodide]", "% Confluence": 4},
      {"smiles": "CC[C@H]1OC(=O)[C@H](C)[C@@H](O[C@H]2C[C@@](C)(OC)[C@@H](O)[C@H](C)O2)[C@H](C)[C@@H](O[C@@H]2O[C@H](C)C[C@H](N(C)C)[C@H]2O)[C@](C)(O)C[C@@H](C)CN(CCCCCCCC[P+](c2ccccc2)(c2ccccc2)c2ccc(N(C)C)cc2)[C@H](C)[C@@H](O)[C@]1(C)O.[I-]", "note": "[Example 12]", "% Confluence": 4.1}
    ]},
    {"system": "MDA-231 cancer cells", "assay": "Inhibition of proliferation assay: cell confluence (IncuCyte imaging)", "format": "cell-based", "details": "compound at 100 uM; MDA-231 cells; IncuCyte images every 3 h over 4-5 d; relative confluence normalised to time zero", "description": "as §1, §2, §3, §4", "units": {"% Confluence": "%"}, "values": [
      {"smiles": "CC[C@H]1OC(=O)[C@H](C)[C@@H](O[C@H]2C[C@@](C)(OC)[C@@H](O)[C@H](C)O2)[C@H](C)[C@@H](O[C@@H]2O[C@H](C)C[C@H](N(C)C)[C@H]2O)[C@](C)(O)C[C@@H](C)CN(C)[C@H](C)[C@@H](O)[C@]1(C)O", "note": "[Azithromycin]", "% Confluence": 17}
    ]}
  ]
}
